According to a melting point compilation (Tetko et al.):

SMILES	melting point [°C]
CC(=O)OC1(c2ccccc2)Cc2ccccc21 (stereo not given)	76
COc1cc(C)c2c(c1)CCC(=Cc1ccccc1)C2=O	96 to 97
O=C1C=CC(=O)N1c1ccc(-c2nc3ccccc3o2)cc1	211 to 213
O=C1C(=CC2C(=O)N(c3ccccc3)N=C2c2ccc([N+](=O)[O-])cc2)C(c2ccc([N+](=O)[O-])cc2)=NN1c1ccccc1 (stereo not given)	283 to 284
CC1(C)OC(=O)C2(CC2)C(=O)O1	65
Clc1ccc(CC(=CCN2CCCC2)c2ccccc2)cc1	48.5
N#Cc1cc(F)ccc1Br	90
BrCCC(c1ccccc1)c1ccccc1	41
CC(=O)Nc1cc(Cl)c(F)cc1[N+](=O)[O-]	111
Cc1nn(C)c(C)c1Br	35
Oc1cc(C(F)(F)F)nc2c(F)cccc12	113
Cc1cc(C)c2c(=O)n3ccccc3cc2c1	114
CCCCc1ccccc1O	-20
O=C(O)c1cccc2c1OCC2	170 to 171
FC(F)(F)c1n[nH]c(/N=C/c2ccc(Cl)cc2)n1	233
ClCc1ccc(Cl)nc1	40
OCC12CC3CC(CC(C3)C1)C2	140
O=C(Nc1cc([N+](=O)[O-])ccc1C(=O)O)c1ccccc1	252
O=C(O)c1ccccc1-n1cccn1	190 to 193
COc1ccc(C(=O)O)c(O)c1	157 to 159
Nc1ccc(C2(c3ccc(N)cc3)OC(=O)c3ccccc32)cc1	203
CCC1(O)c2ccccc2C1C (stereo not given)	52
O=C(O)c1cncc(C#Cc2ccccc2)c1	245 to 247

SMILES	melting point [°C]
CC(C)CNC(=O)N1CCNC1=O	95.5
CCC(C(=O)Nc1ccc(C)cc1)C1CCC(OC)CC1 (stereo not given)	144
COC(=O)Nc1nc2ccc(C(=O)c3cccs3)cc2[nH]1	300 to 305
Brc1ccc(Oc2c(Br)c(Br)c(Br)c(Br)c2Br)cc1	184
O=S1(=O)OC2(c3ccccc31)c1ccc(O)c(O)c1Oc1c2ccc(O)c1O	300
O=C1c2ccccc2C(=O)c2c1ccc1ccccc21	170
NC(N)=NS(=O)(=O)c1ccc(N)cc1	192
Cc1c(C(=O)Cl)cnn1-c1ccc(Cl)cc1	115
O=C1OC(c2ccccc2)(c2ccccc2)c2ccccc21	120
N[C@H](c1ccccc1)[C@@H](O)c1ccccc1	142 to 144
CCCCCCCCCC[C@H](O)CO	69 to 72
Cc1oc(-c2ccccc2)nc1CCl	83 to 84
O=CC(Cl)=Cc1ccccc1	20 to 22
Nc1ccccc1/C=C/c1cc(/C=C/c2ccccc2)c([N+](=O)[O-])cc1[N+](=O)[O-]	193
Cn1c(=O)c(C2=NNC(=O)C2=Cc2ccc(Cl)cc2Cl)c(O)c2ccccc21	280
N#Cc1cccnc1Cl	107 to 109
CC(C)(C)C1CCCC1	-96
O=c1cc2oc3cc(O)c(O)cc3c(-c3ccccc3)c-2cc1O	300
OCC1OC(OCC2OC(O)C(O)C(O)C2O)C(O)C(O)C1O (stereo not given)	86
COC1CC2C3(C)CCCC2(COC3=O)C2C(OC(C)=O)CC3C(C)C(=O)C12C3O (stereo not given)	105
CCCC(O)C(O)CO (stereo not given)	66
CC(C)S(=O)(=O)c1cnc(N2CCCCC2)nc1N	155 to 158
OCCc1cccc2ccccc12	62

SMILES	melting point [°C]
Cc1cc(C)n(N=Cc2ccccc2Cl)c(=O)c1C#N	233 to 235
Cc1nc(/C(C#N)=C\c2ccccc2Cl)sc1/N=N/c1ccc(Cl)cc1	198 to 200
Cn1cc([N+](=O)[O-])c(=O)[nH]c1=O	267 to 270
Fc1cccc(C(F)(F)F)c1	-81.5
O=C(CBr)c1ccc(Cl)c(Cl)c1	57
COc1cccc(C(CCC(=O)O)C(C)(C)C(=O)O)c1 (stereo not given)	137
CCON=C(CC)C1=C(O)CC(c2c(C)cc(C)cc2C)CC1=O (stereo not given)	110
CC(C)(C)OC(=O)N1CCN(c2ccc(C=O)cn2)CC1	126 to 128
CC(S)C(=O)NCC(=O)O (stereo not given)	96
COc1ccc2c(OC)c3ccoc3nc2c1OC	177
COC(=O)c1cc(Br)ccc1N	72
O=C(NCN(CNC(=O)c1ccccc1)N(CNC(=O)c1ccccc1)CNC(=O)c1ccccc1)c1ccccc1	99 to 101
C=Cc1cccc(C=C)c1	-52.3
Cc1cc(C)n2nc(N)c(/N=N/c3cc(Cl)ccc3Cl)c2n1	279
N#CCCN1CCCCC1	-6.8
Cc1nc2ccc([N+](=O)[O-])cc2o1	155
CC(C)=CC1C(C(=O)OCN2C(=O)C3=C(CCCC3)C2=O)C1(C)C (stereo not given)	69
Oc1c(Br)ccc2cccnc12	140
C[C@H](CC=C(c1ccccc1)c1ccccc1)[C@H]1CC[C@H]2[C@@H]3C(O)CC4CC(O)CC[C@]4(C)[C@H]3CC(O)[C@]12C (stereo not given in full)	220
CCCCCCCCOC(=O)CCCCCCCCC(=O)OCCCCCCCC	-67
O=C1CCc2ccc(OCCCCN3CCN(c4cccc(Cl)c4Cl)CC3)cc2N1	139
CCOC(=O)NC(C)(C)Cc1ccc(Cl)cc1	52.8
Sc1ncccn1	230

SMILES	melting point [°C]
CC(=O)NC(Cc1ccc(Br)cc1)C(=O)O (stereo not given)	191 to 193
CCOC(=O)c1c(-c2ccc(OC)cc2)csc1N	75
Clc1ccc2c(c1)Oc1ccc(Cl)cc1O2	202
Cc1ccc(N2CCCC2=O)cc1	86 to 88
Cc1c(C#N)cccc1C#N	136
CC(Nc1cc(C)ccn1)=C(C#N)C(=O)c1ccccc1	102 to 103
Cc1ccc(C)c2c1C(=O)OC2=O	195
C=CC=c1c(=CC)c(O)c(C2=NNC(=O)C2=CNc2ccncc2)c(=O)n1C	238
CC(CN(C)C)CN1c2ccccc2Sc2ccccc21 (stereo not given)	68
Brc1cccc2cccnc12	58 to 59
FC(F)(F)C(F)(F)C(Cl)Cl	-94
CC1=NNC(=O)C1=NNc1ccc(Cl)cc1	215
CC1CCCS1 (stereo not given)	-101
c1ccc(C2=NC(c3ccccc3)C(c3ccccc3)N2)cc1 (stereo not given)	134
O=C(O)Cc1cc(I)c(Oc2ccc(O)c(I)c2)c(I)c1	182
N#Cc1cccc(N2CCCC2)c1	84 to 85
NC(=O)c1sc(NCc2ccccc2)nc1N	196 to 198
CCCCCCCCOC(=O)CCCC	-42.3
COc1ccc(C#N)c(OC)c1	94
CC1(C)CC(=O)C2=C(C1)Nc1c(ccc3ccccc13)C2c1ccc(Cl)cc1Cl (stereo not given)	222
CC(C)c1cc(Br)c(N)c(Br)c1	46
